Series [1] has as its system CIN in patients. To be noted: 443 patients randomly assigned; cited from earlier work.
Series [2] relates to ARI caused by ischemia-reperfusion (I/R). In words: I/R model of ARI: BUN and serum creatinine. The following applies: 45 min ischemia and 24 h reperfusion; 3 mg/kg 30 min before ischemia and before reperfusion. It counts as in vivo, rat. As to the method: (§1) Sprague Dawley rats (250˜300 g) were assigned to four groups: (1) sham surgery group without I/R; (2) I/R+saline vehicle treatment; (3) I/R+SS-20 treatment; (4) I/R+SS-31 treatment. Each experimental group consisted of 8 rats. SS-20 and SS-31 (3 mg/kg, dissolved in saline) were administered to rats 30 min before ischemia and immediately before onset of reperfusion. The control rats were given saline alone on the same schedule.
(§2) Rats were anesthetized with a mixture of ketamine (90 mg/kg, i.p.) and xylazine (4 mg/kg, i.p.). The left renal vascular pedicle was occluded temporarily using a micro-clamp for 30 or 45 min. At the end of the ischemic period, reperfusion was established by removing of the clamp. At that time, the contralateral right kidney was removed. After 24 h reperfusion, animals were sacrificed and blood samples were obtained by cardiac puncture. Renal function was determined by blood urea nitrogen (BUN) and serum creatinine (BioAssay Systems DIUR-500 and DICT-500).
BUN and serum creatinine were assayed using kits from BioAssay Systems (DIUR-500 and DICT-500). […] The # indicates p<0.05 from the IR=saline group.

For series [3] the test system is unchanged. In words: I/R model: renal morphologic examination (H&E, PAS). It counts as in vivo, rat. The following applies: 45 min ischemia and 24 h reperfusion. As to the method: as §1, §2
Renal Morphologic Examination: Kidneys were fixed in 10% neutral-buffered formalin and embedded in paraffin wax. Three micron sections were stained with hematoxylin-eosin (H&E) and periodic acid-Schiff (PAS) and analyzed by light microscopy. Lesions were scored using the following criteria: [1] mitosis and necrosis of individual cells; [2] necrosis of all cells in adjacent proximal convoluted tubules with survival of surrounding tubules; [3] necrosis confined to the distal third of the proximal convoluted tubule with a band of necrosis extending across the inner cortex; and [4] necrosis affecting all three segments of the proximal convoluted tubule.

Series [4] shares this test system. In words: I/R model: TUNEL assay for apoptosis. The class given is in vivo, rat. The following applies: 30 min ischemia and 24 h reperfusion; 3 mg/kg. As to the method:
as §1, §2
TUNEL Assay for Apoptosis: Renal tissue sections were deparaffinized and rehydrated by xylenes, graded alcohol series and deionized H2O, and then incubated in 20 μg/ml proteinase K for 20 min at RT. In situ cell death detection POD kit (Roche, IN, USA) was used according to the manufacturer's instructions. […]

In series [5] the test system is ATP content in renal tissue. As to the kind of experiment: I/R model: ATP content assay of kidney tissue. The class given is in vivo, rat. As to the method: as §1, §2
ATP Content Assay: The kidney tissue was immediately put into 10 ml 5% trichloroacetic acid with 10 mM DTT, 2 mM EDTA and cut into small pieces. The tissue was homogenized on ice, incubated for another 10 min, centrifuged for 10 min at 2000×g, and neutralized with 10N KOH to pH 7.6. After centrifugation for 10 min at 2000×g, aliquots of the resulting supernatant were stored at −80° C. ATP was measured by bioluminescence (ATP bioluminescent kit, Sigma, MO, USA).

The test system of series [6] is renal mitochondria. In words: I/R model: respiration of isolated renal mitochondria. It counts as in vivo, rat. The following applies: after 45 min ischemia, pretreatment. As to the method:
Results. The effects of the aromatic-cationic peptides of the invention on a model of ARI caused by ischemia-reperfusion were investigated. Renal mitochondria were isolated in accordance with the procedures described above and oxygen consumption was measured.
State 3 respiration was initiated with the addition of ADP.

Marks after values point to notes of the source that are not given here. Non-standard residues stand in square brackets, D forms with d. No end group written: not given here.

Regarding `C[C@H](O)C(=O)Nc1c(I)c(C(=O)NC(CO)CO)c(I)c(C(=O)NC(CO)CO)c1I` [Iopamidol (Isovue 370), Iopamidol], in series [1], the “incidence of CIN” value is reported as 8.2%.
For F[dR]FK-NH2 [SS-20], in series [2], the BUN is listed as 130.7 ± 5.5# mg/dl and the “serum creatinine” value was 1.06 ± 0.11# mg/dl. In addition, in series [3], the histopathological score result is “significantly improved histopathological score”; the “tubular cell injury (H&E, PAS)” value was “protected brush border and prevented necrosis in the proximal tubules”. In series [4], the “TUNEL-positive cells in the medulla (tubular cell apoptosis)” value is “significantly prevented TUNEL-positive cells”. Also, the “ATP content in renal tissue” value in series [5] (1 h reperfusion following 45 min ischemia, vs vehicle) is listed as “significantly higher”. Further, in series [5] (end of 15 min ischemia), the “ATP content in renal tissue” value is “not altered”. Besides, the “renal mitochondrial oxygen consumption (state 3 respiration)” value in series [6] is “significantly improved oxygen consumption”.

These data come from patent US11628198B2, “Methods for prevention and treatment of acute renal injury” (Cornell University, priority 2008, dated 2023).
